{"source": "ChEMBL document CHEMBL5465560", "about": "“Selectivity Literature for EUbOPEN Chemogenomic Library” (2024)", "key": {"[1]": {"target": "T1, Mitogen-activated protein kinase kinase kinase 7 (Homo sapiens) (UniProt O43318)", "T1 sequence (whole entry)": "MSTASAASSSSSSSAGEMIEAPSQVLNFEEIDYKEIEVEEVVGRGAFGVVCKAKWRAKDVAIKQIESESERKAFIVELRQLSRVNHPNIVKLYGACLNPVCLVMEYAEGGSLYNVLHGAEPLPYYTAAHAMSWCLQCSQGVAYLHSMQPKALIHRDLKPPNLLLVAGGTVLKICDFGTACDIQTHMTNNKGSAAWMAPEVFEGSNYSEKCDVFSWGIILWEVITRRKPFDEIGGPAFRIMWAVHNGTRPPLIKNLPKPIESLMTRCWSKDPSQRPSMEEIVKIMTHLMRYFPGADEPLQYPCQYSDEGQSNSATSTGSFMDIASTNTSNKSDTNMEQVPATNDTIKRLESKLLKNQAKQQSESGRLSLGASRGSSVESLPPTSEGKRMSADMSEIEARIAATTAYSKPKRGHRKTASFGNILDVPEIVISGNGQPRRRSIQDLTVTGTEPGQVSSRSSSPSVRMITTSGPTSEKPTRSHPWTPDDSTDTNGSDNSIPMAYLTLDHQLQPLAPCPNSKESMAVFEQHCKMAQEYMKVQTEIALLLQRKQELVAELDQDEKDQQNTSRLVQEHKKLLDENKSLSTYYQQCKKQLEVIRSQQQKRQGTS", "experiment": "Selectivity interaction (Kinase panel (KiNativ target engagement assay in Jurkat cells)) EUB0001635a MAP3K7", "format": "cell-based", "conditions": "Selectivity number of off-targets 0.0, Selectivity number of targets 233.0, Source Knowledge https://www.sciencedirect.com/science/article/pii/S2451945619300674?via%3Dihub, at 1 µM"}, "[2]": {"target": "Muscarinic acetylcholine receptor M4 (Homo sapiens) (UniProt P08173)", "sequence (P08173 whole entry)": "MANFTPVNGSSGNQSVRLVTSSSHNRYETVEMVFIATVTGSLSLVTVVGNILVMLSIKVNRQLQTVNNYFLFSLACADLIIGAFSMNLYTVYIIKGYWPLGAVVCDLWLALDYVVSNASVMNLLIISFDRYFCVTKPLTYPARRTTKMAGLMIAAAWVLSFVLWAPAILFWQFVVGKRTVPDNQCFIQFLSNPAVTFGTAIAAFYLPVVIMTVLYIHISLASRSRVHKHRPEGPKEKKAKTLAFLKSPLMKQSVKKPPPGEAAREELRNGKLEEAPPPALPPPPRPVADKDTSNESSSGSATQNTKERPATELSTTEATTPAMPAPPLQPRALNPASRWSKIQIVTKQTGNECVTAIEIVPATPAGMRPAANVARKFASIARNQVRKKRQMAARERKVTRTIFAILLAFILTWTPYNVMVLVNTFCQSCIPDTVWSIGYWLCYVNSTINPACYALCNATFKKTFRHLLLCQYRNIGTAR", "experiment": "Selectivity interaction (GPCR panel (PDSP screen)) EUB0001079a CHRM4", "conditions": "at 10 µM"}, "[3]": {"target": "T2, Mitogen-activated protein kinase 12 (Homo sapiens) (UniProt P53778)", "T2 sequence (whole entry)": "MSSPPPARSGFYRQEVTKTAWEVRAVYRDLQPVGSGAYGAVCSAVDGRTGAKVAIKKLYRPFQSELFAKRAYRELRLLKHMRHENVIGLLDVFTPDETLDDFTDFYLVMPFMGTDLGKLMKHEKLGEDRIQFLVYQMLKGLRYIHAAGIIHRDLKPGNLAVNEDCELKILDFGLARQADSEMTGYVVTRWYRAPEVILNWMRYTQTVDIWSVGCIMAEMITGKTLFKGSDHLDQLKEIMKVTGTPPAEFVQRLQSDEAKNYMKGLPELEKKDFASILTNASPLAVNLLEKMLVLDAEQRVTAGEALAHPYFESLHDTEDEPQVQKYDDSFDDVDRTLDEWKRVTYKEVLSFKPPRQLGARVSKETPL", "experiment": "Selectivity interaction (Kinase screening (Upstate/Millipore)) EUB0000604a MAPK12"}, "[4]": {"target": "Mitogen-activated protein kinase kinase kinase 14 (Homo sapiens) (UniProt Q99558)", "sequence (Q99558 whole entry, looked up)": "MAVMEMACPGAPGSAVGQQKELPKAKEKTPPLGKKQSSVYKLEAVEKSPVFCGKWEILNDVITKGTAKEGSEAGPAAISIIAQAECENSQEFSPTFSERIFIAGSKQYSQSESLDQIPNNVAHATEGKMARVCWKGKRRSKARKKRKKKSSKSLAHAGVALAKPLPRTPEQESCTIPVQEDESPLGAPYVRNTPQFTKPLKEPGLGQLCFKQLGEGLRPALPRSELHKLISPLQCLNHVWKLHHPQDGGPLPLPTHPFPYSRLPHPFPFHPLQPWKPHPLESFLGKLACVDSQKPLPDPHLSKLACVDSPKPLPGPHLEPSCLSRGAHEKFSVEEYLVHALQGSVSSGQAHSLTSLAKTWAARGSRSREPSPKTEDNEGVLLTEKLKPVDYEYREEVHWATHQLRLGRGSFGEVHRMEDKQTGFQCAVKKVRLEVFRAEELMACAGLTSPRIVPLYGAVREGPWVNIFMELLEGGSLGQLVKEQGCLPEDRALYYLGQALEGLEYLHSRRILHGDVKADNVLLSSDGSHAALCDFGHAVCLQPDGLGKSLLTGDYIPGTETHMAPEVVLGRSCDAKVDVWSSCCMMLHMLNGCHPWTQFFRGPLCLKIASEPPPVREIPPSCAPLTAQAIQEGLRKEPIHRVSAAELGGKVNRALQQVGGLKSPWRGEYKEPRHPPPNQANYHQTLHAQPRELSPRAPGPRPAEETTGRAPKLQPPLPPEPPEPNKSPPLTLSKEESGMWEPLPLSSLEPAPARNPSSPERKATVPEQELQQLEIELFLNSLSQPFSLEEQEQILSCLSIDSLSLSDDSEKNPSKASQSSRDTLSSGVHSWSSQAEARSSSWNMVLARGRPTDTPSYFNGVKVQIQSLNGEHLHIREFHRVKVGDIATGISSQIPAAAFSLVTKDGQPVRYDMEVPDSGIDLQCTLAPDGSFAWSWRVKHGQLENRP", "experiment": "Selectivity interaction (Kinase panel (Invitrogen)) EUB0000639a MAP3K14", "conditions": "at 200 nM"}, "[5]": {"test_system": "Epidermal growth factor receptor (Homo sapiens), P00533 [UNDEFINED MUTATION]", "sequence (P00533 whole entry, looked up, change not shown)": "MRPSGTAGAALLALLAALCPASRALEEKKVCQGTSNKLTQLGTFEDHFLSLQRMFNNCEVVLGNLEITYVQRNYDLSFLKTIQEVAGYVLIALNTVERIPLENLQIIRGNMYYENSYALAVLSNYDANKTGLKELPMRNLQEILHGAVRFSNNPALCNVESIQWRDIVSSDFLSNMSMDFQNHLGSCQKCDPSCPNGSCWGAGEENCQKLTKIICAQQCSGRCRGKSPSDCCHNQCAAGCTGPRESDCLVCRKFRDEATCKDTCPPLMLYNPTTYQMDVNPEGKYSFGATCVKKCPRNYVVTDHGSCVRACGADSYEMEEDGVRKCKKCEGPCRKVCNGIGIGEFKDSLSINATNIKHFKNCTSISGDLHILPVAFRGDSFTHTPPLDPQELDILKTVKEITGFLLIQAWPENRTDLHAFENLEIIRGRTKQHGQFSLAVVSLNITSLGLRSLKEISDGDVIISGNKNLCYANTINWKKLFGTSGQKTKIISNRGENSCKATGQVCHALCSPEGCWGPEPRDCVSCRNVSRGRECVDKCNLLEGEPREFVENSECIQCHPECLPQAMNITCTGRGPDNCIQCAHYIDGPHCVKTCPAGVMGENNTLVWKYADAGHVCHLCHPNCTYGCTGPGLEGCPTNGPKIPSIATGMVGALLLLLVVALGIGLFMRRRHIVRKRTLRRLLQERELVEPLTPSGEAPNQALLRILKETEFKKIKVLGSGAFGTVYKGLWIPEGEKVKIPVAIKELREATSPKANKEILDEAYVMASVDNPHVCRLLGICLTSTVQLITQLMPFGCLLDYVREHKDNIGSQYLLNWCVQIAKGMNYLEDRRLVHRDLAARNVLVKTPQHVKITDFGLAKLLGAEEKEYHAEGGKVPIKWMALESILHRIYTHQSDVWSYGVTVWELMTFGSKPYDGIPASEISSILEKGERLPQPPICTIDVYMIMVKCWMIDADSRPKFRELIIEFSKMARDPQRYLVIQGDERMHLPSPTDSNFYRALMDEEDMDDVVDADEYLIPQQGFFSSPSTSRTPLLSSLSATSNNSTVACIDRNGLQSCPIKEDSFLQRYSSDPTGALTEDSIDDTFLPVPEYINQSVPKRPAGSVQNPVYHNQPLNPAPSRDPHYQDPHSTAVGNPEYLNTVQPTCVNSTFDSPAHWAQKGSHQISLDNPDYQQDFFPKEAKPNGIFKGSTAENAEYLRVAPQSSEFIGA", "experiment": "Selectivity interaction (KinomeScan (DiscoverX)) EUB0000092b EGFR", "conditions": "at 10 µM"}, "[6]": {"target": "T3, Serine/threonine-protein kinase Nek3 (Homo sapiens) (UniProt P51956)", "T3 sequence (whole entry)": "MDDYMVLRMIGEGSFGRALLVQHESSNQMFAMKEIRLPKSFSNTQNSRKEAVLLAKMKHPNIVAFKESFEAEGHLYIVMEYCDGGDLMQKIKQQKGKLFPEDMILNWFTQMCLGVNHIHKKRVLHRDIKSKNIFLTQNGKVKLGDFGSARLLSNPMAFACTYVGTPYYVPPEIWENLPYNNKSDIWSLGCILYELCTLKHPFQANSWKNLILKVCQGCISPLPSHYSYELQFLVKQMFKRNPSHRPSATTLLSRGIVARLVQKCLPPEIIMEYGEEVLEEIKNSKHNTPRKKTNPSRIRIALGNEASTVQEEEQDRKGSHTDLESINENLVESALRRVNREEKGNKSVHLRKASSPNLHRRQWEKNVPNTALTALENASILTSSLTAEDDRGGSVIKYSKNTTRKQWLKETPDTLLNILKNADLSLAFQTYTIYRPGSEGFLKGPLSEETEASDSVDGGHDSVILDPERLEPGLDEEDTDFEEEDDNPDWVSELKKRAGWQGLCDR", "experiment": "Selectivity interaction (Ambit KINOMEscan and KiNATiv profiling in Jurkat cells) EUB0000090b NEK3", "format": "cell-based", "conditions": "at 1 µM"}}, "data": [{"smiles": "C=CC(=O)Nc1ccc(C(=O)Nc2[nH]nc3c2CN(C(=O)N[C@H](CN(C)C)c2ccccc2)C3(C)C)cc1", "values": [{"measurement": "% of engagement", "setting": "[1]", "result": -4.8, "unit": "%"}]}, {"smiles": "Nc1cnc(N2CCc3cc(S(=O)(=O)Nc4c(F)cc(Cl)cc4F)cc(N4CCCC4=O)c32)nc1", "note": "[TP-020n]", "values": [{"measurement": "% of inhibition", "setting": "[2]", "result": 9.99, "unit": "%"}]}, {"smiles": "Cc1cnc(Nc2ccc(F)cc2Cl)nc1-c1c[nH]c(C(=O)N[C@H](CO)c2cccc(Cl)c2)c1", "values": [{"measurement": "% of inhibition", "setting": "[3]", "result": 56, "unit": "%"}]}, {"smiles": "CC[C@@H]1[C@H](F)C(=O)N[C@@H]1COc1nccc2cc(C(N)=O)c(OC)cc12", "note": "[ZIMLOVISERTIB]", "values": [{"measurement": "% of inhibition", "setting": "[4]", "result": -0.0527, "unit": "%"}]}, {"smiles": "CCC(=O)N1CCN(c2ccc(-n3c(=O)ccc4cnc5ccc(-c6cnc7ccccc7c6)cc5c43)cc2C(F)(F)F)CC1", "values": [{"measurement": "% of control", "setting": "[5]", "result": 80, "unit": "%"}]}, {"smiles": "CN(C)C/C=C/C(=O)Nc1ccc(C(=O)N2CCCC(Nc3ncc(Cl)c(-c4c[nH]c5ccccc45)n3)C2)cc1", "note": "(stereo unspecified)", "values": [{"measurement": "% of control", "setting": "[6]", "result": 88, "unit": "%"}]}]}
